# Assay results as given in patent publication US20240408099A1, “COMBINATION […] OF KRAS G12D INHIBITORS WITH Pan ErbB FAMILY INHIBITORS” (MIRATI THERAPEUTICS, INC., priority 2021, published 2024).
# Tested on: HPAC cells
# Assay: HPAC TGI 73 pancreatic cancer xenograft, tumor volumes
# Assay type: in vivo, nude/nude mice
# Conditions: for Average Tumor Volumes: 50 mg/kg PO daily
# Experimental: Immunocompromised nude/nude mice are inoculated in the right hind flank with cells harboring a KRas G12D mutation. When tumor volumes reach between 200-400 mm^3 in size, the mice are divided into four to five groups of 5 mice each. The first group is administered vehicle only. […] The fourth or last groups are administered the single agent dose of the KRas G12D inhibitor using the twice daily schedule and/or the 2 sequential days followed by 5 days off schedule in combination with the single agent dose of one of the EGFR inhibitors. The treatment period varies from cell line to cell line but typically is between 15-40 days. Tumor volumes are measured using a caliper every two-three days and tumor volumes are calculated by the formula: […].
# Experimental Procedures. 20 nude/nude mice were inoculated with HPAC cells in the right hind flank. When the tumors reached ˜200 mm^3 four treatment groups were established with five mice per group.
smiles,measurement,setting,value
"C#Cc1cccc(Nc2ncnc3cc(OCCOC)c(OCCOC)cc23)c1 [Erlotinib, [6,7-Bis-(2-methoxy-ethoxy)-quinazolin-4-yl]-(3-ethynyl-phenyl)-amine, reference compound]",Average Tumor Volumes,Study Day 0,197.582 mm^3
same,Average Tumor Volumes,Study Day 3,320.132 mm^3
same,Average Tumor Volumes,Study Day 7,421.908 mm^3
same,Average Tumor Volumes,Study Day 10,587.79 mm^3
same,Average Tumor Volumes,Study Day 14,705.688 mm^3
same,Average Tumor Volumes,Study Day 17,856.214 mm^3
same,Average Tumor Volumes,Study Day 21,945.702 mm^3
same,tumor growth inhibition,"50 mg/kg daily, single agent, Day 21",35%
